The source of these data is patent publication US7265121B2, “Chemical compounds” (Eli Lilly and Company, priority 2001, dated 2007).

T1 sequence (P00742 235-488 limits assumed): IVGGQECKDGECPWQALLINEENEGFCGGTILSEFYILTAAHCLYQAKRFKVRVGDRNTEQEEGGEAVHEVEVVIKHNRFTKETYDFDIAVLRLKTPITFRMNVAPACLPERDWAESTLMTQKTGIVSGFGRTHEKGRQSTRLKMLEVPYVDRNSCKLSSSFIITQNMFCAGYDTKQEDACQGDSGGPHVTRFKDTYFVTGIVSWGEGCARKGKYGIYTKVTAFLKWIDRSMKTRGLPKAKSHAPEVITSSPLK
T1 sequence (P00742 41-179 partner limits assumed): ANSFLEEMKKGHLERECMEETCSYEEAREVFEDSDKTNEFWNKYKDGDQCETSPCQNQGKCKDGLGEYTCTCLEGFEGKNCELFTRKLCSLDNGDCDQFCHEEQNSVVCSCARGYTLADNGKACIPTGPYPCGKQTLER

System in one data set: not given
Assay: not given
Conditions: not given
`C#CC[C@@H](NC(=O)c1cc2ccc(Cl)cc2s1)C(=O)N1CCN(C2CCN(C)CC2)CC1.Cl`: the melting point is 115 to 135 °C (dec.).
Same read-out and setting: the figure for `C#CC[C@@H](NC(=O)c1ccc2cc[nH]c2c1)C(=O)N1CCN(C2CCN(C)CC2)CC1.Cl` is 170 to 180 °C (dec.); for `C=CC[C@@H](NC(=O)c1cc2cc(Cl)ccc2[nH]1)C(=O)N1CCN(C2CCN(C)CC2)CC1.Cl` it is 170 to 175 °C (dec.).
As to `C=CC[C@@H](NC(=O)c1ccc2cc[nH]c2c1)C(=O)N1CCN(C2CCN(C)CC2)CC1.Cl`, the melting point was 110 to 115 °C (dec.).
Consider `C=CC[C@@H](NC(=O)c1cc2ccc(Cl)cc2s1)C(=O)N1CCN(C2CCN(C)CC2)CC1.Cl`, for which the melting point was 130 to 135 °C (dec.).
Turning to `C#CC[C@@H](NC(=O)c1cc2cc(Cl)ccc2[nH]1)C(=O)N1CCN(C2CCN(C)CC2)CC1.Cl`, the melting point is 174 to 185 °C (dec.).

A further data set concerns the target T1, human factor Xa (Homo sapiens, UniProt P00742).
T1 construct: 25 μL human factor Xa (32 nM in 0.03 M tris, 0.15 M NaCl, 1 mg/mL HSA); purchased Enzyme Research Laboratories (South Bend, Ind., USA)
Kind of data set: Enzyme inhibition assay: apparent association constant (Kass) for human factor Xa, chromogenic substrate hydrolysis. Type of data set: biochemical. The settings on record: human factor Xa 3.2 nM, BzIleGluGlyArgpNA substrate, approximately inverse of Ki. As for the experimental part: Human factor Xa and human thrombin are purchased from Enzyme Research Laboratories (South Bend, Ind., USA). Other proteases are from other commercial sources. Chromogenic para-nitroanilide peptide protease substrates are purchased from Midwest Biotech (Fishers, Ind., USA).
The binding affinities for human factor Xa are were measured as apparent association constants (Kass) derived from protease inhibition kinetics as described previously.^a,b,c,d The apparent Kass values are obtained using automated (BioMek-1000) dilutions of inhibitors (Kass determinations are performed in triplicate at each of four-eight inhibitor concentrations) into 96-well plates and chromogenic substrate hydrolysis rates determined at 405 nm using a Thermomax plate reader from Molecular Devices (San Francisco). For factor Xa inhibition, the assay protocol is: 50 μL buffer (0.06 M tris, 0.3 M NaCl, pH 7.4); 25 μL inhibitor test solution (in MeOH); 25 μL human factor Xa (32 nM in 0.03 M tris, 0.15 M NaCl, 1 mg/mL HSA); finally, 150 μL BzIleGluGlyArgpNA (0.3 mM in water) added within 2 min to start hydrolysis. Final [factor Xa] is 3.2 nM. [Free Xa] and [bound Xa] are determined from linear standard curves on the same plate by use of SoftmaxPro software for each inhibitor concentration and apparent Kass calculated for each inhibitor concentration which produced hydrolysis inhibition between 20% and 80% of the control (3.2 nM factor Xa): apparent Kass [E:I]/[Ef][If]=[Eb]/[Ef][I^o−Ib]. The apparent Kass values so obtained are approximately the inverse of the Ki for the respective inhibitors [1/appKass=app Ki]. The variability of mean apparent Kass values determined at the single substrate concentration is +/−15%. The assay system Km was measured as 0.347+/−0.031 mM [n=4]; and Vmax was 13.11+/−0.76 μM/min.
`COc1ccc(C(=O)N[C@@H](C(=O)N2CCC(C3CCN(C)CC3)CC2)C(C)C)cc1.Cl` [Example 6, 1-(4-Methoxybenzoyl-D-valinyl)-4-(1-methylpiperidin-4-yl)-piperidine Hydrochloride]: the Kass result was “about 20 ×10^6 L/mole”.
Regarding `CC(C)[C@@H](NC(=O)c1cc2cc(Cl)ccc2[nH]1)C(=O)N1CCN(C2CCN(C)CC2)CC1.Cl` [Example 18, 1-(5-Chloroindole-2-carbonyl-D-valinyl)-4-(1-methylpiperidin-4-yl)piperazine Hydrochloride], the Kass was about 3.58e+08 L/mol.
As for `CC(C)[C@@H](NC(=O)c1ccc2cc[nH]c2c1)C(=O)N1CCC(C2CCN(C)CC2)CC1.Cl` [Example 9, 1-(Indole-6-carbonyl-D-valinyl)-4-(1-methylpiperidin-4-yl)piperidine Hydrochloride], the Kass was about 8.9e+07 L/mol.
